According to ChEMBL document CHEMBL1129048, “A novel, picomolar inhibitor of human immunodeficiency virus type 1 protease” (J Med Chem, 1996):

Tests used:
MT4 = assay: In vitro effective concentration against MT-4 cell line; type: functional, cell-based; settings: Homo sapiens
[1] = target: Human immunodeficiency virus type 1 protease (Human immunodeficiency virus 1, UniProt Q72874); assay: Inhibitory activity against HIV-1 Protease

Row | Compound | EC50 (MT4) | Ki [1]
1 | COc1cccc(CN2C(=O)N(Cc3cccc(OC)c3)N(Cc3ccccc3)C[C@@H](O)[C@H]2Cc2ccccc2)c1 | 930 nM | 0.22 nM
2 | O=C1N(Cc2ccc(O)cc2)[C@H](Cc2ccccc2)[C@H](O)CN(Cc2ccccc2)N1Cc1ccc(O)cc1 | 10 nM | 0.07 nM
3 | O=C1N(Cc2ccc(CO)cc2)[C@H](Cc2ccccc2)[C@H](O)CN(Cc2ccccc2)N1Cc1ccc(CO)cc1 | 90 nM | 0.22 nM
4 | O=C1N(Cc2ccc(CO)cc2)[C@H](Cc2ccccc2)[C@H](O)CN(Cc2ccoc2)N1Cc1ccc(CO)cc1 | 100 nM | 0.49 nM
5 | COc1cc(CN2C(=O)N(CC3CC3)N(Cc3ccccc3)C[C@@H](O)[C@H]2Cc2ccccc2)ccc1O | 170 nM | 0.062 nM
6 | COc1cc(CN2C(=O)N(Cc3ccc(O)c(OC)c3)N(Cc3ccccc3)C[C@@H](O)[C@H]2Cc2ccccc2)ccc1O | 2 nM | –
7 | O=C1N(Cc2ccccc2)[C@H](Cc2ccccc2)[C@H](O)CN(Cc2ccccc2)N1Cc1ccccc1 | 2860 nM | 2 nM
8 | O=C1N(Cc2ccc(CO)cc2)[C@H](Cc2ccccc2)[C@H](O)[C@@H](O)[C@@H](Cc2ccccc2)N1Cc1ccc(CO)cc1 [DMP-323] | 30 nM | 0.23 nM
